Assays:
Rats [1] = test system: Rats; design: Rat Jump .5 hr (current at which the animal first jumps) / Rat Jump .5 hr, second value printed in parentheses / Rat Jump 2 hr (current at which the animal first jumps): unit not given here; details: in vivo, ip
mice [2] = details: mouse, in vivo, ip
mice [3] = details: mouse, in vivo, ip; remark: listed apart in the source
mice [4] = assay: animal or person; type: in vivo, mouse; details: ip
Rats [5] = assay: Toxicity and adverse effects noted (comments), rats; type: in vivo, rat; details: for loss of righting reflex (rats): at 100 mg./kg.
Excerpt: (§1) The tabulated test results include comments regarding toxicity and adverse effects noted with certain compounds.

[6] = Analgesic and tranquilizing effectiveness, summary of Examples 10 and 11; type: in vivo
mice [7] = assay: Toxicity and adverse effects noted (comments), mice; type: in vivo, mouse; details: at 32 mg./kg.
Excerpt: as §1

[8] = Toxicity and adverse effects noted (comments), species not stated; type: in vivo; details: at 100 mg./kg.
Excerpt: as §1

Rats [9] = details: rat, in vivo, ip

Compound	Rat Jump 2 hr (current at which the animal first jumps) (Rats [1])	Rat Jump .5 hr (current at which the animal first jumps) (Rats [1])	Hot Plate 2 hr (percentage of mice showing analgesia) (mice [2])	Hot Plate .5 hr (percentage of mice showing analgesia) (mice [2])	Tail Flick 2 hr (percentage of analgesia response) (mice [3])	Tail Flick .5 hr (percentage of analgesia response) (mice [3])	Tail Pinch 2 hr (percentage of mice showing analgesia) (mice [4]; mouse, in vivo)	Tail Pinch .5 hr (percentage of mice showing analgesia) (mice [4]; mouse, in vivo)	loss of righting reflex (rats) (Rats [5])	analgesic and tranquilizing effectiveness [6]	mice died (mice [7])	rats died (Rats [5]; at 32 mg./kg.)	ED50 (mice [4]; Mus musculus, read-out: Tail Pinch ED50) [mg/kg]	toxicity [8]	Tail Pinch ED50 (mice [4]; mouse, in vivo) [mg/kg]	Amphetamine Antagonism Activity (dosage approximately neutralizing the amphetamine effect) (Rats [9]) [mg/kg]
COc1ccc(Cl)c2c1CCC(CN1CCC(C(=O)N3CCCCC3)CC1)=C2	1.2	1.6	0	20	0	40	0	0	2/5	–	–	–	–	–	–	–
COc1ccc(Cl)c2c1CCC(CN1CCC(OC(C)=O)(c3ccccc3)CC1)=C2 [1-(2-[8-Chloro-5-methoxy-3,4-dihydronaphthyl]methyl)-4-acetoxy-4-phenylpiperidine]	–	–	–	–	–	–	–	–	–	outstanding effectiveness	–	–	–	–	–	–
COc1ccc(Cl)c2c1CCC(CN1CCC(NC(=O)N3CCCCC3)CC1)=C2	1.2	1.2	0	0	0	0	0	0	1/5	–	–	–	–	–	–	–
COc1ccc(Cl)c2c1CCC(CN1CCC(C(=O)N3CCCC3)CC1)=C2	1.2	1.2	0	25	0	25	0	0	–	–	1/5	–	–	–	–	–
COc1ccc(Cl)c2c1CCC(CNCC1CC1)=C2	1.2	1.2	10	40	0	20	0	40	–	–	–	1/5	–	–	–	–
CCC(=O)O[C@](Cc1ccccc1)(c1ccccc1)[C@H](C)CN(C)C [d-Propoxyphene, reference compound]	–	1.2	0	60	20	40	–	–	–	–	–	–	11.5	toxic	–	–
Codeine Sulfate [reference compound]	–	> 2.2	60	80	50	100	–	–	–	–	–	–	–	–	15.4	> 32

Reference: US4022791A (priority 1975, dated 1977)
